Reference: patent publication US10005774B2, “Syk inhibitors” (Gilead Sciences, Inc., priority 2013, dated 2018)

The molecules below were run against Syk (Homo sapiens, UniProt P43405) (assay: High Throughput Syk Biochemical Assay (KinEASE TR-FRET)). Details: TABLE D, 20 μM ATP, 1 μM biotinylated peptide, 0.015 nM Syk, 30 min at room temperature, read-out: IC50.
How it was run: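 Compounds in DMSO dilution series were tested against Syk, which phosphorylates an XL665-tagged peptide. The phosphoproduct was bound by Eu-labelled phosphotyrosine antibody in a two-step endpoint format.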

Molecule | IC50 [nM]
COc1cc(-c2cc(O[C@H](C)[C@H]3CNC(=O)C3)c3ccnn3c2)cc(OC)c1OC [(R)-4-((R)-1-((6-(3,4,5-trimethoxyphenyl)pyrazolo[1,5-a]pyridin-4-yl)oxy)ethyl)pyrrolidin-2-one] | 85.1
COc1ccc(-c2cn3nc(C)cc3c(O[C@H](C)[C@H]3CNC(=O)C3)n2)cc1OC [(R)-4-((R)-1-((6-(3,4-dimethoxyphenyl)-2-methylpyrazolo[1,5-a]pyrazin-4-yl)oxy)ethyl)pyrrolidin-2-one] | 31.4
COc1ccc(-c2cc(O[C@H](C)[C@H]3CNC(=O)C3)c3c(C)cnn3c2C)cc1OC [(R)-4-((R)-1-((6-(3,4-dimethoxyphenyl)-3,7-dimethylpyrazolo[1,5-a]pyridin-4-yl)oxy)ethyl)pyrrolidin-2-one] | 53.7
COc1ccc(-c2cc(O[C@H](C)[C@H]3CNC(=O)C3)c3ccnn3c2)cc1OC [(R)-4-((R)-1-((6-(3,4-dimethoxyphenyl)pyrazolo[1,5-a]pyridin-4-yl)oxy)ethyl)pyrrolidin-2-one] | 39.1
C[C@@H](Oc1cc(-c2ccc(N3CCOCC3)cc2)cn2nccc12)[C@H]1CNC(=O)C1 [(R)-4-((R)-1-((6-(4-morpholinophenyl)pyrazolo[1,5-a]pyridin-4-yl)oxy)ethyl)pyrrolidin-2-one] | 7.85
COc1ccc(-c2cc(O[C@H](C)[C@H]3CNC(=O)C3)c3ccnn3c2)nc1OC [(R)-4-((R)-1-((6-(5,6-dimethoxypyridin-2-yl)pyrazolo[1,5-a]pyridin-4-yl)oxy)ethyl)pyrrolidin-2-one] | 4.84
C[C@@H](Oc1nc(-c2ccc3scnc3c2)cc2ncn(C)c12)[C@H]1CNC(=O)C1 [(R)-4-((R)-1-((6-(benzo[d]thiazol-5-yl)-3-methyl-3H-imidazo[4,5-c]pyridin-4-yl)oxy)ethyl)pyrrolidin-2-one] | 30.6
C[C@@H](Oc1cc(-c2cccc3scnc23)cc2ncsc12)[C@H]1CNC(=O)C1 [(R)-4-((R)-1-([4,5′-bibenzo[d]thiazol]-7′-yloxy)ethyl)pyrrolidin-2-one] | 105
Cn1cnc2cc(-c3cnn(C(C)(C)C)c3)nc(O[C@H](CF)[C@H]3CNC(=O)C3)c21 [(R)-4-((S)-1-(6-(1-tert-butyl-1H-pyrazol-4-yl)-3-methyl-3H-imidazo[4,5-c]pyridin-4-yloxy)-2-fluoroethyl)pyrrolidin-2-one] | 20.1
COC[C@@H](Oc1nc(-c2cnn(C(C)(C)C)c2)cc2ncn(C)c12)[C@H]1CNC(=O)C1 [(R)-4-((S)-1-(6-(1-tert-butyl-1H-pyrazol-4-yl)-3-methyl-3H-imidazo[4,5-c]pyridin-4-yloxy)-2-methoxyethyl)pyrrolidin-2-one] | 186
COc1ccc(-c2cc3ncn(C(F)F)c3c(O[C@H](C)[C@H]3CNC(=O)C34CC4)n2)cc1OC [(R)-7-((R)-1-((3-(difluoromethyl)-6-(3,4-dimethoxyphenyl)-3H-imidazo[4,5-c]pyridin-4-yl)oxy)ethyl)-5-azaspiro[2.4]heptan-4-one] | 38
C[C@@H](Oc1nc(-c2cnn(C(C)(C)C)c2)cc2ncn(C(F)F)c12)[C@H]1CNC(=O)C12CC2 [(R)-7-((R)-1-((6-(1-(tert-butyl)-1H-pyrazol-4-yl)-3-(difluoromethyl)-3H-imidazo[4,5-c]pyridin-4-yl)oxy)ethyl)-5-azaspiro[2.4]heptan-4-one] | 35.1
C[C@@H](Oc1nc(-c2ccc(S(=O)(=O)N(C)C)cc2)cc2ncn(C)c12)[C@H]1CNC(=O)C1 [N,N-dimethyl-4-(3-methyl-4-((R)-1-((R)-5-oxopyrrolidin-3-yl)ethoxy)-3H-imidazo[4,5-c]pyridin-6-yl)benzenesulfonamide] | 13.4
C[C@@H](Oc1nc(-c2ccc(N3CCN(C(=O)OC(C)(C)C)CC3)cc2)cc2ncn(C)c12)[C@H]1CNC(=O)C1 [tert-butyl 4-(4-(3-methyl-4-((R)-1-((R)-5-oxopyrrolidin-3-yl)ethoxy)-3H-imidazo[4,5-c]pyridin-6-yl)phenyl)piperazine-1-carboxylate] | 18.3

Same assay, conditions: table 'ALL NEW COMPOUNDS IN 2014', 20 μM ATP, 1 μM biotinylated peptide, 0.015 nM Syk, 30 min at room temperature, read-out: Syk IC50

Molecule | IC50 [nM]
C[C@@H](Oc1nc(-c2ccc(N3CCN(C4COC4)CC3)c(Cl)c2)cc2ncn(C3CC3)c12)[C@H]1CNC(=O)C1 [(R)-4-((R)-1-((6-(3-chloro-4-(4-(oxetan-3-yl)piperazin-1-yl)phenyl)-3-cyclopropyl-3H-imidazo[4,5-c]pyridin-4-yl)oxy)ethyl)pyrrolidin-2-one] | 2.76
(R)-4-((R)-1-((3-cyclopropyl-6-(3,4-dimethoxyphenyl)-3H-imidazo[4,5-c]pyridin-4-yl)oxy)ethyl)pyrrolidin-2-one | 6.57
